Laboratory results taken from PubChem BioAssay (NCI).
Several values for one entry are separate records, joined by “and”; a condition that tells them apart may be missing. Identical values can stand only once.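 Following 48 hours of exposure in 96-well plates, responses at five concentrations were used to interpolate endpoints linearly. Here, GI50 denotes the concentration required for 50% inhibition of growth. The concentration for full growth arrest is given as TGI.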

What was measured:
Assay in all cases: inhibition of tumour cell growth, NCI panel, 48 h
K-562 leukemia = tested on: K-562 leukemia
MDA-MB-231 breast = tested on: MDA-MB-231 breast
SN12C renal = tested on: SN12C renal
SF-268 CNS = tested on: SF-268 CNS
EKVX NSCLC = tested on: EKVX NSCLC
SNB-75 CNS = tested on: SNB-75 CNS
COLO 205 colon = tested on: COLO 205 colon
A549 NSCLC = tested on: A549 NSCLC
BT-549 breast = tested on: BT-549 breast
TK-10 renal = tested on: TK-10 renal

Row | Compound | GI50 (K-562 leukemia) [µM] | TGI (K-562 leukemia) [µM] | GI50 (MDA-MB-231 breast) | TGI (MDA-MB-231 breast) [µM] | GI50 (SN12C renal) [µM] | TGI (SN12C renal) [µM] | GI50 (SF-268 CNS) [µM] | TGI (SF-268 CNS) [µM] | GI50 (EKVX NSCLC) | TGI (EKVX NSCLC) [µM] | GI50 (SNB-75 CNS) [µM] | TGI (SNB-75 CNS) [µM] | GI50 (COLO 205 colon) [µM] | TGI (COLO 205 colon) [µM] | GI50 (A549 NSCLC) [µM] | TGI (A549 NSCLC) [µM] | GI50 (BT-549 breast) | TGI (BT-549 breast) | GI50 (TK-10 renal) | TGI (TK-10 renal) [µM]
1 | CN(C)CC(=O)N1CCC(c2ccc(NC(=O)c3ncc(C#N)[nH]3)c(C3=CCCCC3)c2)CC1 | 3.21 | 12 | 8.31 µM | 23.2 | 2.74 | 16.9 | 10.4 | 24.2 | 14.1 µM | 28 | 1.25 | 9.12 | 4.43 | 14.1 | 5 | 17.2 | 4.52 µM | 16.1 µM | 7.86 µM | 20.6
2 | O=C(CSc1nc2ccc([N+](=O)[O-])cc2[nH]1)Nc1ccc(F)c(Cl)c1 | 2.44 | > 42.3 | 1.91 µM | 5.59 | 2.36 | 10.7 | 2.91 | 13.2 | 1.85 µM | 8.85 | 1.84 | 7.5 | 1.6 | 3.3 | 2.48 | 12.6 | 2.44 µM | 9.34 µM | 4.08 µM | 15.9
3 | CCc1c2c(nc3cc4c(cc13)OCO4)-c1cc3c(c(=O)n1C2)COC(=O)[C@]3(O)CC |  | > 100 | 0.0726 µM and 0.167 µM | > 100 |  | > 100 | 0.00907 | 0.622 | 4.31 µM and 1.8 µM | > 100 |  |  | 1.17 | > 100 |  | 2.08 | 0.0654 µM and 0.0367 µM | 5.29 µM and 0.782 µM | 0.294 µM and 1.91 µM | 
4 | COC1(C(=O)N2Cc3nc(Cl)nc(N[C@H](C)c4cc(N)cc(C(F)(F)F)c4)c3C2)CCOCC1 | 0.888 | > 68.4 | 15.9 µM | 31.3 | 12.4 | 53.4 | 13.7 | 49.1 | 14.1 µM | > 100 | 17.4 | 62.9 | 18 | 33.8 | 21.1 | > 100 | 12.4 µM | 28.2 µM | 1.23 µM | 45.8
5 | Cc1ccc2c(C(C[N+](=O)[O-])c3cccs3)c(-c3ccccc3)[nH]c2c1 (centres undefined) | 1.16 | > 33.3 | 1.65 µM | 6.31 | 1.89 | 7.01 | 2.77 | 11.5 | 2 µM | 14.9 | 0.638 | 2.49 | 2.46 | 12.6 | 2.73 | 15.1 | 1.92 µM | 7.29 µM | 7.46 µM | 18.5
6 | CCOc1ccc(S(=O)(=O)/N=C2\C=C(SCC(=O)O)C(=O)c3ccccc32)cc1 | 3.35 | 10.6 | 2.84 µM | 12.2 | 2.15 | 4.97 | 2.95 | 12.2 | 3.29 µM | 11.3 | 2.5 | 4.96 | 3.68 | 14 | 12.6 | 34.9 | 4.66 µM | 15 µM | 26.5 µM | 56.9
